Reference: ChEMBL document CHEMBL5724914, “Linking interpersonal differences in gut microbiota composition and drug biotransformation activity” (2024)

Columns and labels:
[1] = human gut metagenome, 24 h, 2 µM
[2] = human gut metagenome, 24 h, 2 µM; remark: listed apart in the source
[3] = human gut metagenome, 24 h, 2 µM; remark: listed apart in the source
[4] = (§1) The drug is tested on WLS-039 corresponding to human gut metagenome with ENA study accession number: PRJEB37062 and ENA sample accession number: ERS12561746 for biotransformation under anaerobic condition. The drug concentrations were measured over 9 timepoints collected between 0 and 24 hours of incubation by liquid-chromatography-coupled mass spectrometry (LC–MS); settings: 2 µM
[5] = human gut metagenome, 24 h, 2 µM; remark: listed apart in the source
[6] = as §1, with “Z-026” for “WLS-039”, “to” for “to human gut”, “ERS12561825” for “ERS12561746”; settings: 2 µM
[7] = human gut metagenome, 24 h, 2 µM; remark: listed apart in the source
[8] = human gut metagenome, 24 h, 2 µM; remark: listed apart in the source
[9] = human gut metagenome, 24 h, 2 µM; remark: listed apart in the source
[10] = as §1, with “Z-005” for “WLS-039”, “to” for “to human gut”, “ERS12561805” for “ERS12561746”; settings: 2 µM
[11] = human gut metagenome, 24 h, 2 µM; remark: listed apart in the source
[12] = as §1, with “WLS-052” for “WLS-039”, “ERS12561747” for “ERS12561746”; settings: 2 µM
[13] = human gut metagenome, 24 h, 2 µM; remark: listed apart in the source
[14] = human gut metagenome, 24 h, 2 µM; remark: listed apart in the source
[15] = as §1, with “WLS-090” for “WLS-039”, “ERS12561753” for “ERS12561746”; settings: 2 µM
[16] = as §1, with “WLS-350” for “WLS-039”, “ERS12561789” for “ERS12561746”; settings: 2 µM
[17] = human gut metagenome, 24 h, 2 µM; remark: listed apart in the source
[18] = as §1, with “Z-020” for “WLS-039”, “rabbit” for “human”, “ERS12561819” for “ERS12561746”; settings: 2 µM
[19] = as §1, with “Z-024” for “WLS-039”, “pig” for “human”, “ERS12561823” for “ERS12561746”; settings: 2 µM
[20] = as §1, with “Z-002” for “WLS-039”, “rabbit” for “human”, “ERS12561802” for “ERS12561746”; settings: 2 µM
Further: call rule not given here.

SMILES	Bacterial Biotransformation [1]	Bacterial Biotransformation [2]	Bacterial Biotransformation [3]	Bacterial Biotransformation [4]	Bacterial Biotransformation [5]	Bacterial Biotransformation [6]	Bacterial Biotransformation [7]	Bacterial Biotransformation [8]	Bacterial Biotransformation [9]	Bacterial Biotransformation [10]	Bacterial Biotransformation [11]	Bacterial Biotransformation [12]	Bacterial Biotransformation [13]	Bacterial Biotransformation [14]	Bacterial Biotransformation [15]	Bacterial Biotransformation [16]	Bacterial Biotransformation [17]	Bacterial Biotransformation [18]	Bacterial Biotransformation [19]	Bacterial Biotransformation [20]
CC(C)(C)NC[C@H](O)COc1nsnc1N1CCOCC1.O=C(O)/C=C\C(=O)O [TIMOLOL MALEATE]	Compound NOT metabolized	Compound NOT metabolized	Compound NOT metabolized	Compound NOT metabolized	Compound NOT metabolized	Compound NOT metabolized	Compound NOT metabolized	Compound NOT metabolized	Compound NOT metabolized	Compound NOT metabolized	Compound NOT metabolized	Compound NOT metabolized	Compound NOT metabolized	Compound NOT metabolized	Compound NOT metabolized	Compound NOT metabolized	Compound NOT metabolized	Compound NOT metabolized	Compound NOT metabolized	Compound NOT metabolized
CC[C@@]1(O)C(=O)OCc2c1cc1n(c2=O)Cc2cc3c(CN(C)C)c(O)ccc3nc2-1 [TOPOTECAN]	Compound NOT metabolized	Compound NOT metabolized	Compound NOT metabolized	Compound NOT metabolized	Compound NOT metabolized	Compound NOT metabolized	Compound NOT metabolized	Compound NOT metabolized	Compound NOT metabolized	Compound NOT metabolized	Compound NOT metabolized	Compound NOT metabolized	Compound NOT metabolized	Compound NOT metabolized	Compound NOT metabolized	Compound NOT metabolized	Compound NOT metabolized	Compound NOT metabolized	Compound NOT metabolized	Compound NOT metabolized
CC(C)(C)NCC(O)COc1cccc2c1CC(O)C(O)C2 (stereo not given) [NADOLOL]	Compound NOT metabolized	Compound NOT metabolized	Compound metabolized	Compound NOT metabolized	Compound NOT metabolized	Compound NOT metabolized	Compound NOT metabolized	Compound NOT metabolized	Compound metabolized	Compound NOT metabolized	Compound NOT metabolized	Compound NOT metabolized	Compound NOT metabolized	Compound metabolized	Compound metabolized	Compound metabolized	Compound NOT metabolized	Compound NOT metabolized	Compound NOT metabolized	Compound metabolized
CN(C)C(=O)Oc1cc(OC(=O)N(C)C)cc(C(O)CNC(C)(C)C)c1 (stereo not given) [BAMBUTEROL]	Compound metabolized	Compound NOT metabolized	Compound metabolized	Compound NOT metabolized	Compound NOT metabolized	Compound NOT metabolized	Compound NOT metabolized	Compound NOT metabolized	Compound metabolized	Compound NOT metabolized	Compound NOT metabolized	Compound NOT metabolized	Compound NOT metabolized	Compound metabolized	Compound metabolized	Compound metabolized	Compound NOT metabolized	Compound NOT metabolized	Compound NOT metabolized	Compound metabolized
CC(NC(C)(C)C)C(=O)c1cccc(Cl)c1 (stereo not given) [BUPROPION]	Compound NOT metabolized	Compound NOT metabolized	Compound metabolized	Compound NOT metabolized	Compound NOT metabolized	Compound NOT metabolized	Compound NOT metabolized	Compound NOT metabolized	Compound NOT metabolized	Compound NOT metabolized	Compound NOT metabolized	Compound NOT metabolized	Compound NOT metabolized	Compound NOT metabolized	Compound NOT metabolized	Compound NOT metabolized	Compound NOT metabolized	Compound NOT metabolized	Compound NOT metabolized	Compound NOT metabolized
CC(C)(C)N.CCC[C@H](N[C@@H](C)C(=O)N1[C@H](C(=O)O)C[C@@H]2CCCC[C@@H]21)C(=O)OCC [PERINDOPRIL ERBUMINE]	Compound NOT metabolized	Compound metabolized	Compound metabolized	Compound NOT metabolized	Compound metabolized	Compound NOT metabolized	Compound metabolized	Compound NOT metabolized	Compound metabolized	Compound metabolized	Compound metabolized	Compound NOT metabolized	Compound NOT metabolized	Compound metabolized	Compound metabolized	Compound metabolized	Compound metabolized	Compound metabolized	Compound metabolized	Compound metabolized
CC#C[C@]1(O)CC[C@H]2[C@@H]3CCC4=CC(=O)CCC4=C3[C@@H](c3ccc(N(C)C)cc3)C[C@@]21C [MIFEPRISTONE]	Compound NOT metabolized	Compound NOT metabolized	Compound metabolized	Compound NOT metabolized	Compound NOT metabolized	Compound NOT metabolized	Compound NOT metabolized	Compound NOT metabolized	Compound NOT metabolized	Compound metabolized	Compound NOT metabolized	Compound metabolized	Compound NOT metabolized	Compound metabolized	Compound metabolized	Compound NOT metabolized	Compound NOT metabolized	Compound metabolized	Compound metabolized	Compound metabolized
CC12CC3CC(C)(C1)CC(N)(C3)C2 [MEMANTINE]	Compound NOT metabolized	Compound NOT metabolized	Compound NOT metabolized	Compound metabolized	Compound NOT metabolized	Compound NOT metabolized	Compound NOT metabolized	Compound NOT metabolized	Compound NOT metabolized	Compound NOT metabolized	Compound NOT metabolized	Compound NOT metabolized	Compound NOT metabolized	Compound NOT metabolized	Compound metabolized	Compound NOT metabolized	Compound NOT metabolized	Compound NOT metabolized	Compound NOT metabolized	Compound NOT metabolized
